A word on the IC50: it is the concentration that inhibits the measured activity by half. A word on the GI50: it is the concentration at which growth is held to half of that of the control. A higher GI50 goes with lower sensitivity of the cells.

Assay [1] in a line: Antiproliferative activity against human Molt 4/C8 cells assessed as cell growth inhibition. The format is functional, cell-based. Particulars: Molt4/C8.
Another assay concerns P388. Kind of assay: Antiproliferative activity against mouse P388 cells assessed as cell growth inhibition. The format is functional, cell-based.
The next assay concerns CCRF-CEM. Kind of assay: Antiproliferative activity against human CEM cells assessed as cell growth inhibition. The format is functional, cell-based.
For another assay, the system named is L1210. Kind of assay: Antiproliferative activity against mouse L1210 cells assessed as cell growth inhibition. The format is functional, cell-based.
For a further assay, the system named is RPMI-7951. Kind of assay: Growth inhibition of human RPMI-7951 cells measured after 72 hrs by microplate reader analysis. The format is functional, cell-based. Particulars: for GI50: RPMI-7951, time 72 hrs.
The subject of a further assay is MDA-MB-231. Kind of assay: Growth inhibition of human MDA-MB-231 cells measured after 72 hrs by microplate reader analysis. In kind it is functional.

On to `COc1ccc(/C=C2\CNC/C(=C\c3ccc(OC)cc3)C2=O)cc1`, for which the IC50 (in assay [1]; in the assay with P388; in the assay on CCRF-CEM; with L1210) was 810 nM in each case.

`C=CC(=O)N1C/C(=C\c2ccc(Cl)c(Cl)c2)C(=O)/C(=C/c2ccc(Cl)c(Cl)c2)C1`: the IC50 (in assay [1]; in the assay with P388; in the assay on CCRF-CEM; with L1210) was 280 nM in each case.

With `C=CC(=O)N1C/C(=C\c2ccc(Cl)cc2)C(=O)/C(=C/c2ccc(Cl)cc2)C1`, the half-inhibitory concentration (IC50) (in assay [1]; with P388; in the assay on CCRF-CEM; with L1210) was 280 nM in each case.

Regarding `O=C1/C(=C/c2ccccc2)CNC/C1=C\c1ccccc1`, the IC50 (in assay [1]; with P388; in the assay on CCRF-CEM; in the assay with L1210) was 810 nM each time.

`O=C1/C(=C/c2ccc(Cl)c(Cl)c2)CNC/C1=C\c1ccc(Cl)c(Cl)c1`: the half-maximal inhibitory concentration (IC50) (in assay [1]; with P388; in the assay on CCRF-CEM; with L1210) was 810 nM in each case.

For the compound `C=CC(=O)N1C/C(=C\c2ccc(OC)cc2)C(=O)/C(=C/c2ccc(OC)cc2)C1`, the IC50 (in assay [1]; with P388; with CCRF-CEM; with L1210) was 280 nM in each case.

Regarding `C=CC(=O)N1C/C(=C\c2ccccc2)C(=O)/C(=C/c2ccccc2)C1`, the 50% inhibitory concentration (IC50) (in assay [1]; in the assay on P388; in the assay on CCRF-CEM; in the assay on L1210) was 280 nM in each case.

`C=CC(=O)N1C/C(=C\c2ccc([N+](=O)[O-])cc2)C(=O)/C(=C/c2ccc([N+](=O)[O-])cc2)C1`: the IC50 (in assay [1]; with P388; with CCRF-CEM; in the assay with L1210) was 280 nM in each case.

Turning to `O=C1/C(=C/c2ccccc2)CN(C(=O)/C=C/c2ccccc2)C/C1=C\c1ccccc1`, the IC50 was determined as 1600 nM in assay [1], 221 nM with P388, 1610 nM in the assay on CCRF-CEM and 5340 nM with L1210.

On to `C=CC(=O)N1C/C(=C\c2ccc(N(C)C)cc2)C(=O)/C(=C/c2ccc(N(C)C)cc2)C1`, for which the IC50 (in assay [1]; with P388; in the assay on CCRF-CEM; in the assay on L1210) was 280 nM each time.

Turning to `CC(=O)Oc1ccccc1/C=C/C(=O)/C=C/c1ccccc1OC(C)=O`, the GI50 in the assay on RPMI-7951 worked out at 2300 nM; in the assay on MDA-MB-231 it was 1000 nM.

Take `O=C1/C(=C/c2ccc(Cl)cc2)CNC/C1=C\c1ccc(Cl)cc1`: the IC50 (in assay [1]; with P388; in the assay on CCRF-CEM; with L1210) was 810 nM in each case.

With `O=C1/C(=C/c2ccc([N+](=O)[O-])cc2)CNC/C1=C\c1ccc([N+](=O)[O-])cc1`, the half-maximal inhibitory concentration (IC50) (in assay [1]; with P388; with CCRF-CEM; in the assay with L1210) was 810 nM each time.

Regarding `C=CC(=O)N1C/C(=C\c2ccc(F)cc2)C(=O)/C(=C/c2ccc(F)cc2)C1`, the 50% inhibitory concentration (IC50) (in assay [1]; in the assay on P388; with CCRF-CEM; in the assay on L1210) was 280 nM each time.

`O=C1/C(=C/c2ccc(F)cc2)CNC/C1=C\c1ccc(F)cc1`: the IC50 (in assay [1]; in the assay with P388; in the assay with CCRF-CEM; with L1210) was 810 nM in each case.

For the compound `O=C1/C(=C/c2ccccc2F)COC/C1=C\c1ccccc1F`, the GI50 in the assay with RPMI-7951 and in the assay on MDA-MB-231 was 800 nM each time.

With `COc1ccccc1/C=C/C(=O)/C=C/c1ccccc1OC`, the GI50 turned out to be 2300 nM with RPMI-7951 and 1000 nM in the assay with MDA-MB-231.

In the case of `CN(C)c1ccc(/C=C2\CNC/C(=C\c3ccc(N(C)C)cc3)C2=O)cc1`, the IC50 (in assay [1]; in the assay on P388; in the assay with CCRF-CEM; with L1210) was 810 nM throughout.

Take `Cc1ccc(C(=O)/C=C/c2ccc(C(=O)N3C/C(=C\c4ccccc4)C(=O)/C(=C/c4ccccc4)C3)cc2)cc1C`: the IC50 in assay [1] is 1600 nM; in the assay with P388, 221 nM; in the assay with CCRF-CEM, 1610 nM; in the assay with L1210, 5340 nM.

For the compound `O=C1/C(=C/c2ccccc2)CN(C(=O)/C=C/c2ccc3c(c2)OCO3)C/C1=C\c1ccccc1`, the half-maximal inhibitory concentration (IC50) in assay [1] came to 1600 nM; with P388, 221 nM; with CCRF-CEM, 1610 nM; in the assay on L1210, 5340 nM.

As to `O=C1/C(=C/c2ccccc2F)CNC/C1=C\c1ccccc1F`, the 50% inhibitory concentration (IC50) with RPMI-7951 (RPMI-7951, 72 h) amounted to 700 nM. In the assay on MDA-MB-231, the GI50 came out at 800 nM.

For the compound `O=C1/C(=C/c2ccccc2)CN(C(=O)c2ccc(/C=C/C(=O)c3ccc([N+](=O)[O-])cc3)cc2)C/C1=C\c1ccccc1`, the half-maximal inhibitory concentration (IC50) in assay [1] was determined as 1600 nM; in the assay on CCRF-CEM it was 1610 nM; in the assay on L1210, 5340 nM.

For `O=C1/C(=C/c2ccccc2)CN(C(=O)c2ccc(/C=C/C(=O)c3ccccc3)cc2)C/C1=C\c1ccccc1`, the IC50 in assay [1] amounted to 1600 nM; in the assay with P388, 221 nM; with CCRF-CEM it was 1610 nM; with L1210 it was 5340 nM.

For the compound `O=C1/C(=C/c2ccccc2O)COC/C1=C\c1ccccc1O`, the concentration for 50% growth inhibition (GI50) with RPMI-7951 and in the assay on MDA-MB-231 was 800 nM in each case.

With `O=C1/C(=C/c2ccccc2)CN(C(=O)c2ccc(/C=C/C(=O)c3ccc(Cl)c(Cl)c3)cc2)C/C1=C\c1ccccc1`, the concentration for half-maximal inhibition (IC50) in assay [1] turned out to be 1600 nM; in the assay with P388, 221 nM; in the assay with CCRF-CEM, 1610 nM; in the assay on L1210, 5340 nM.

For the compound `O=C1/C(=C/c2ccccc2)CN(C(=O)c2ccc(/C=C/C(=O)c3ccc(O)cc3)cc2)C/C1=C\c1ccccc1`, the figures for the IC50 (in assay [1]; in the assay with P388; in the assay with CCRF-CEM) were 1600 nM, 221 nM and 1610 nM, respectively.

In the case of `O=C1/C(=C/c2ccccc2)CN(C(=O)/C=C/c2ccc(Cl)cc2)C/C1=C\c1ccccc1`, the 50% inhibitory concentration (IC50) was found to be 1600 nM in assay [1], 221 nM in the assay on P388, 1610 nM with CCRF-CEM and 5340 nM with L1210.

For the compound `O=C1/C(=C/c2ccccc2)CN(C(=O)/C=C/c2ccc([N+](=O)[O-])cc2)C/C1=C\c1ccccc1`, the IC50 in assay [1] was determined as 1600 nM; in the assay with P388 it was 221 nM; with CCRF-CEM, 1610 nM; with L1210 it was 5340 nM.

In the case of `Cc1ccc(/C=C/C(=O)N2C/C(=C\c3ccccc3)C(=O)/C(=C/c3ccccc3)C2)cc1`, the IC50 in assay [1] worked out at 1600 nM; with P388, 221 nM; in the assay on CCRF-CEM, 1610 nM; in the assay on L1210, 5340 nM.

As to `COc1ccc(/C=C/C(=O)N2C/C(=C\c3ccccc3)C(=O)/C(=C/c3ccccc3)C2)cc1`, the 50% inhibitory concentration (IC50) in assay [1] was found to be 1600 nM; in the assay with P388, 221 nM; with CCRF-CEM it was 1610 nM; in the assay on L1210, 5340 nM.

Take `Cc1ccc(C(=O)/C=C/c2ccc(C(=O)N3C/C(=C\c4ccccc4)C(=O)/C(=C/c4ccccc4)C3)cc2)cc1`: the IC50 in assay [1] was 1600 nM; with P388, 221 nM; in the assay on CCRF-CEM, 1610 nM; in the assay on L1210 it was 5340 nM.

For `COc1ccc(C(=O)/C=C/c2ccc(C(=O)N3C/C(=C\c4ccccc4)C(=O)/C(=C/c4ccccc4)C3)cc2)cc1OC`, the IC50 in assay [1] was found to be 1600 nM; with P388, 221 nM; in the assay on CCRF-CEM it was 1610 nM; in the assay with L1210, 5340 nM.

Take `COc1ccc(C(=O)/C=C/c2ccc(C(=O)N3C/C(=C\c4ccccc4)C(=O)/C(=C/c4ccccc4)C3)cc2)cc1`: the half-maximal inhibitory concentration (IC50) in assay [1] was 1600 nM; in the assay with P388 it was 221 nM; in the assay with CCRF-CEM, 1610 nM; in the assay with L1210, 5340 nM.

As for `COc1ccc(/C=C/C(=O)N2C/C(=C\c3ccccc3)C(=O)/C(=C/c3ccccc3)C2)cc1OC`, the 50% inhibitory concentration (IC50) in assay [1] was 1600 nM; with P388 it was 221 nM; with CCRF-CEM, 1610 nM; with L1210 it was 5340 nM.

As for `COc1cc(/C=C/C(=O)N2C/C(=C\c3ccccc3)C(=O)/C(=C/c3ccccc3)C2)cc(OC)c1OC`, the IC50 came out at 1600 nM in assay [1], 221 nM in the assay on P388, 1610 nM in the assay with CCRF-CEM and 5340 nM with L1210.

On to `O=C1/C(=C/c2ccccc2)CN(C(=O)c2ccc(/C=C/C(=O)c3ccc(Cl)cc3)cc2)C/C1=C\c1ccccc1`, for which the IC50 in assay [1] is 1600 nM; in the assay with P388 it was 221 nM; in the assay with CCRF-CEM, 1610 nM; in the assay with L1210 it was 5340 nM.

Consider `O=C1/C(=C/c2ccccc2)CN(C(=O)/C=C/c2ccc(Cl)c(Cl)c2)C/C1=C\c1ccccc1`, for which the IC50 was 1600 nM in assay [1], 221 nM in the assay on P388, 1610 nM with CCRF-CEM and 5340 nM with L1210.
